{"source": "patent US20190328710A1", "about": "“SYNERGISTIC COMPOSITION FOR INHIBITING ADVANCED GLYCATION END PRODUCT CROSSLINKING” (H2 Water Technologies Ltd., priority 2018, published 2019)", "origin": "cited, not measured here", "tested_on": "patients with cataracts", "conditions": "96-patient trial, 6-month trial period", "data": [{"smiles": "NCCC(=O)N[C@@H](Cc1cnc[nH]1)C(=O)O", "note": "[L-Carnosine]", "values": [{"measurement": "success rate in advanced senile cataracts", "setting": "advanced senile cataracts", "result": 80, "unit": "%"}, {"measurement": "success rate in patients with mild to moderate cataracts", "setting": "mild to moderate cataracts", "result": 100, "unit": "%"}]}]}
